Non-standard residues stand in square brackets, D forms with d. No end group written: not given here.
How the values were obtained:
[1] = system: guinea pig ileum longitudinal muscle with adhering myenteric plexus; assay: Guinea pig ileum test (inhibition of electrically induced twitch of longitudinal muscle strips); format: cell-based; details: ratio of IC50 of reference Met^5-enkephalin to IC50 of test compound in the same preparation, averaged (N=4); reference given as 100
Description: Adult male guinea pigs (Charles River, Hartley strain) weighing 300-500 g. are decapitated, and the terminal ileum is exposed by reflecting the overlying cecum, severed at the ileocecal juncture, and removed while cutting the mesenteric attachments to avoid excessive traction on the tissue. The ileum (about 30 cm. in length) is transferred to a beaker containing warm modified Krebs-Henseleit solution (118 mM sodium chloride, 4.75 mM potassium chloride, 2.54 mM calcium chloride, 1.19 mM potassium dihydrogen phosphate, 1.2 mM magnesium sulfate, 25 mM sodium bicarbonate, 11 mM glucose, 20 μM choline chloride and 0.125 μM pyrilamine maleate). The terminal (aboral) portion (about 10 cm, in length) is discarded, and segments (3-4 cm. in length) are cut from the remainder and gently slid onto a glass rod (5-6 mm. in diameter) and arranged so that the mesenteric attachment is in a straight line. A cotton swab moistened in the solution is then carefully used to separate the longitudinal muscle from the underlying circular muscle. The longitudinal muscle and adhering myenteric plexus is then gently removed from the remaining tissue with forceps.
Strips of thus prepared longitudinal muscle are mounted in a double-jacketed organ bath (5 ml.) under tension (1.0 g.), connected to isometric transducers (Grass FT 0.03), bathed in the modified Krebs-Henseleit solution described above, aerated with oxygen-carbon dioxide (95:5) and maintained at 37° C.
Stimulators (Grass S-44) are set to deliver repetitive, monophasic square wave field stimulation (supramaximal voltage, 0.10 Hz., 0.25 msec. duration) through platinum ring electrodes at the top and bottom of the bath. Regular contractions of the muscle, which result from electrically-induced liberation of acetylcholine from postganglionic parasympathetic nerves, are recorded on a polygraph (Grass model 5). Following tissue equilibration (45-60 min.) and repeated washing (every 10 min.) an aqueous solution of a reference or test compound is added to the bath in a microliter volume (1.25-250 μl) and reductions in muscle twitch height are recorded. More compound can be added […] first washing the preparation.
From the results a half-maximal inhibitory concentration (IC50) value for the compound is computed by regression analysis of a linear plot of logarithm of concentration against percent of inhibition of twitch height (probits). The ratio of the IC50 value of a reference compound to that of a test compound tested in the same preparation is the molar potency ratio. At least four preparations are tested simultaneously (N=4), and the resulting molar potency ratios are averaged.
The following results were obtained using the examples as test compounds and Met^5 -enkephalin as the reference compound: […]

[2] = system: guinea pig ileum longitudinal muscle with adhering myenteric plexus; details: Vavrek et al., Abstract P-76, 1981; cited from earlier work

| Compound | Average Molar Potency Ratio [1] | activity as % of Met-enkephalin on the stimulated guinea pig ileum [2] |
| --- | --- | --- |
| Met^5 -enkephalin [reference compound] | 100 | – |
| CC(C)CCNC(=O)[C@H](Cc1ccccc1)NC(=O)[C@@H](CN(C)C)NC(=O)[C@@H](N)Cc1ccc(O)cc1 [Example 3, L-tyrosyl-3-(dimethylamino)-D-alanyl-N-(3-methylbutyl)-L-phenylalaninamide] | 5 | – |
| CC(C)CCNC(=O)[C@H](Cc1ccccc1)NC(=O)[C@@H](C)NC(=O)[C@@H](N)Cc1ccc(O)cc1 [Example 1, L-tyrosyl-D-alanyl-N-(3-methylbutyl)-L-phenylalaninamide] | 25 | – |
| D,L-N-(3-methylbutyl)-2-[(L-tryosyl-D-alanyl)amino]benzenepentanamide [Example 7] | 5 | – |
| CC(C)CCN(CCc1ccccc1)C(=O)[C@H](Cc1ccccc1)NC(=O)[C@@H](C)NC(=O)[C@@H](N)Cc1ccc(O)cc1 [Example 2, L-tyrosyl-D-alanyl-N-(3-methylbutyl)-N-(2-phenylethyl)-L-phenylalaninamide] | 6 | – |
| Tyr-[dA]-Phe-NH2 | – | 25% |
